Test results taken from patent US11993574B2, “Pyrazole and imidazole compounds for inhibition of IL-17 and RORgamma” (REATA PHARMACEUTICALS, INC., priority 2018, dated 2024).

Experiments:
Format in all cases: cell-based
[1] = tested on: Nrf2 transcription factor; test: AREc32 luciferase reporter assay; conditions: Homo sapiens; AREc32 cells, 19 hours; concentration required to increase GST ARE luciferase reporter activity by 2-fold; read-out: NRF2 ARE 2-Fold (EC2×)
Outline: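 AREc32 cells (MCF-7 with firefly luciferase under eight rat GSTA2 ARE copies) treated 19 h with compound (0.4-200 nM or 3.9-2000 nM) in triplicate. Luminescence normalized to DMSO as fold-induction, capped at 50-fold. EC2× = concentration giving 2-fold reporter increase, interpolated from variable-slope fit.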

[2] = target: T1, Human RAR-related Orphan Receptor Gamma (RORγ) (Homo sapiens, UniProt P51449); test: RORγ assay (GAL4-RORγ hybrid luciferase reporter, Indigo Biosciences); conditions: inverse-agonist activity, GAL4-RORγ reporter cells, 23 hours
T1 sequence (P51449 269-508 limits assumed): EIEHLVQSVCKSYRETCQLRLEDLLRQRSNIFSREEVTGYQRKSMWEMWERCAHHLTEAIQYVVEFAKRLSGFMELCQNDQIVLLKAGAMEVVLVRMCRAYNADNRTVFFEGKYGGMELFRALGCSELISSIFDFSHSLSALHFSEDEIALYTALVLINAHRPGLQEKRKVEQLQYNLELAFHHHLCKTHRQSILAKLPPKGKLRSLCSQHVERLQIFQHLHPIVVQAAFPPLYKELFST
Outline: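 […]engineered human reporter cell line expressing GAL4-DBD/RORγ-LBD hybrid with GAL4-UAS luciferase; constitutive activity measured as inverse agonism. Cells treated with compound (7.8-2000 nM) for 23 h at 37 °C; luminescence normalized to DMSO, IC50 by variable-slope fit, with parallel viability readout to flag non-specific inhibition.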

[3] = tested on: IL-17A; test: IL-17 release from differentiated primary human T-cells (IL-17A HTRF assay); conditions: primary human CD4+ T cells differentiated into Th17 cells, 45-hour incubation, IL-17A in supernatant; read-out: hIL17 IC50
Outline: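 Primary human CD4+ T cells (~2×10^5/well) given compound (2–500 or 4–1000 nM, 0.1% DMSO), CD3/CD28-activated and Th17-differentiated (TGF-β, IL-6, IL-23, IL-1β) for 45 h at 37° C. Supernatant IL-17A by HTRF against standard curve, normalized to vehicle; IC50 by variable-slope regression, with parallel CyQuant viability.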

SMILES | IC50 [2] | IC50 [3] | EC (2-fold) [1]
C[C@H]1C(=O)C(C#N)=C[C@@]2(C)c3c(c(C4CCCCC4)nn3-c3ccc(-c4ccccc4)cc3)CC[C@H]12 [T76] | 73 nM | 30 nM | 0.465 µM
C[C@H]1C(=O)C(C#N)=C[C@@]2(C)c3c(c(N4CCOCC4)nn3-c3ccc(-c4ccccc4)cc3)CC[C@H]12 [T77] | 111 nM | 68 nM | 0.908 µM
Cc1cc(-c2ccc(-n3nc(-c4ccccc4F)c4c3[C@]3(C)C=C(C#N)C(=O)[C@H](C)[C@H]3CC4)cc2)cnn1 [T83] | 33 nM | 20 nM | 0.139 µM
C[C@H]1C(=O)C(C#N)=C[C@@]2(C)c3c(c(-c4ccccc4F)nn3-c3ccc(N4CCOCC4)cc3)CC[C@H]12 [T85] | 50 nM | 46 nM | 0.079 µM
C[C@H]1C(=O)C(C#N)=C[C@@]2(C)c3c(c(-c4ccccc4F)nn3-c3nnc(-c4ccccc4)n3C)CC[C@H]12 [T86] | 351 nM | 88 nM | 1.48 µM
C[C@H]1C(=O)C(C#N)=C[C@@]2(C)c3c(c(-c4ccccc4F)nn3-c3nc(-c4ccccc4)cs3)CC[C@H]12 [T87] | 685 nM | 27 nM | 1.26 µM
C[C@H]1C(=O)C(C#N)=C[C@@]2(C)c3c(c(-c4ccccc4F)nn3-c3nc4cc(C(F)(F)F)ccc4s3)CC[C@H]12 [T88] | 219 nM | 11 nM | 0.743 µM
C[C@H]1C(=O)C(C#N)=C[C@@]2(C)c3c(c(-c4ccccc4F)nn3-c3nc4ccc(Cl)cc4s3)CC[C@H]12 [T89] | 251 nM | 13 nM | 0.482 µM
C[C@H]1C(=O)C(C#N)=C[C@@]2(C)c3c(c(-c4ccccc4F)nn3-c3nc4ccccc4n3C)CC[C@H]12 [T90] | 135 nM | 57 nM | 1.31 µM
C[C@H]1C(=O)C(C#N)=C[C@@]2(C)c3c(c(-c4ccccc4F)nn3-c3nc4ccccc4[nH]3)CC[C@H]12 [T91] | > 2000 nM | > 500 nM | > 2 µM
C[C@H]1C(=O)C(C#N)=C[C@@]2(C)c3c(c(-c4ccccc4F)nn3-c3nc4ccccc4s3)CC[C@H]12 [T92] | 340 nM | 28 nM | 0.491 µM
Cc1nc(-c2ccc(-n3nc(-c4ccccc4F)c4c3[C@]3(C)C=C(C#N)C(=O)[C@H](C)[C@H]3CC4)cc2)no1 [T94] | 65 nM | 24 nM | 0.146 µM
Cc1noc(-c2ccc(-n3nc(-c4ccccc4F)c4c3[C@]3(C)C=C(C#N)C(=O)[C@H](C)[C@H]3CC4)cc2)n1 [T95] | 62 nM | 40 nM | 0.185 µM
C[C@H]1C(=O)C(C#N)=C[C@@]2(C)c3c(c(-c4ccncn4)nn3-c3nc4ccccc4s3)CC[C@H]12 [T98] | 289 nM | 78 nM | 0.275 µM
C[C@H]1C(=O)C(C#N)=C[C@@]2(C)c3c(c(-c4cccnc4)nn3-c3nc4ccccc4s3)CC[C@H]12 [T99] | 449 nM | 87 nM | 0.329 µM
Cc1cc(-c2ccc(-n3nc(-c4cccnc4)c4c3[C@]3(C)C=C(C#N)C(=O)[C@H](C)[C@H]3CC4)cc2)cnn1 [T102] | 90 nM | 56 nM | 0.918 µM
C[C@H]1C(=O)C(C#N)=C[C@@]2(C)c3c(c(-c4cccc(F)c4)nn3-c3ccnc4ccccc34)CC[C@H]12 [T104] | 208 nM | 62 nM | 0.638 µM
Cc1noc(-c2ccc(-n3nc(-c4ccc(F)cc4)c4c3[C@]3(C)C=C(C#N)C(=O)[C@H](C)[C@H]3CC4)cc2)n1 [T106] | 83 nM | 27 nM | 0.29 µM
Cc1noc(-c2ccc(-n3nc(-c4cccnc4)c4c3[C@]3(C)C=C(C#N)C(=O)[C@H](C)[C@H]3CC4)cc2)n1 [T107] | 112 nM | 87 nM | 0.505 µM
Cc1cc(-c2ccc(-n3nc(-c4nc(C)no4)c4c3[C@]3(C)C=C(C#N)C(=O)[C@H](C)[C@H]3CC4)cc2)cnn1 [T108] | 154 nM | 223 nM | 1.25 µM
Cc1noc(-c2nn(-c3ccc(-c4cccnc4)cc3)c3c2CC[C@@H]2[C@@H](C)C(=O)C(C#N)=C[C@@]32C)n1 [T109] | 89 nM | 163 nM | 0.543 µM
Cc1cc(-c2ccc(-n3nc(-c4noc(C)n4)c4c3[C@]3(C)C=C(C#N)C(=O)[C@H](C)[C@H]3CC4)cc2)cnn1 [T110] | 193 nM | 126 nM | 1.31 µM
C[C@H]1C(=O)C(C#N)=C[C@@]2(C)c3nc(C4CCCCC4)n(-c4ccccc4)c3CC[C@H]12 [T113] | 172 nM | 181 nM | > 1 µM
C[C@H]1C(=O)C(C#N)=C[C@@]2(C)c3nn(-c4ccc(Cl)cc4)c(-c4ccccc4)c3CC[C@H]12 [T114] | 106 nM | 507 nM | 0.894 µM
C[C@H]1C(=O)C(C#N)=C[C@@]2(C)c3nn(-c4ccccc4)c(-c4ccccc4)c3CC[C@H]12 [T115] | 77 nM | 287 nM | 0.466 µM

Further lines, with some results ahead:

IC50 [2] | IC50 [3] | SMILES | EC (2-fold) [1]
138 nM | 10 nM | Cc1ccccc1-c1nn(-c2ccc(-c3ccccc3)cc2)c2c1CC[C@@H]1[C@@H](C)C(=O)C(C#N)=C[C@@]21C [T72] | 0.205 µM
40 nM | 30 nM | C[C@H]1C(=O)C(C#N)=C[C@@]2(C)c3c(c(-c4ccc(CO)cc4)nn3-c3ccc(-c4ccccc4)cc3)CC[C@H]12 [T73] | 0.159 µM
111 nM | 16 nM | C[C@H]1C(=O)C(C#N)=C[C@@]2(C)c3c(c(-c4ccc(CF)cc4)nn3-c3ccc(-c4ccccc4)cc3)CC[C@H]12 [T74] | 0.182 µM
68 nM | 130 nM | C[C@H]1C(=O)C(C#N)=C[C@@]2(C)c3c(c(C4CC4)nn3-c3ccc(-c4ccccc4)cc3)CC[C@H]12 [T75] | 0.248 µM
62 nM | 48 nM | C[C@H]1C(=O)C(C#N)=C[C@@]2(C)c3c(c(NC4CCC4)nn3-c3ccc(-c4ccccc4)cc3)CC[C@H]12 [T78] | 0.534 µM
140 nM | 178 nM | CNc1nn(-c2ccc(-c3ccccc3)cc2)c2c1CC[C@@H]1[C@@H](C)C(=O)C(C#N)=C[C@@]21C [T79] | 1.04 µM
71 nM | 17 nM | C[C@H]1C(=O)C(C#N)=C[C@@]2(C)c3c(c(N(C)C4CCC4)nn3-c3ccc(-c4ccccc4)cc3)CC[C@H]12 [T80] | 0.347 µM
67 nM | 30 nM | C[C@H]1C(=O)C(C#N)=C[C@@]2(C)c3c(c(-c4ccccn4)nn3-c3ccc(-c4ccccc4)cc3)CC[C@H]12 [T81] | 0.243 µM
44 nM | 63 nM | C[C@H]1C(=O)C(C#N)=C[C@@]2(C)c3c(c(-c4ccccc4F)nn3-c3ccc(-c4cncnc4)cc3)CC[C@H]12 [T82] | 0.208 µM
23 nM | 33 nM | C[C@H]1C(=O)C(C#N)=C[C@@]2(C)c3c(c(-c4ccccc4F)nn3-c3ccc(-c4ccncc4)cc3)CC[C@H]12 [T84] | 0.121 µM
42 nM | 37 nM | C[C@H]1C(=O)C(C#N)=C[C@@]2(C)c3c(c(-c4ccccc4F)nn3-c3ccc(-c4ccncn4)cc3)CC[C@H]12 [T93] | 0.139 µM
59 nM | 32 nM | Cc1noc(-c2nn(-c3ccc(-c4ccccc4)cc3)c3c2CC[C@@H]2[C@@H](C)C(=O)C(C#N)=C[C@@]32C)n1 [T96] | 0.258 µM
107 nM | 38 nM | C[C@H]1C(=O)C(C#N)=C[C@@]2(C)c3c(c(-c4ccccc4)nn3-c3ccc(-c4ccccc4)cn3)CC[C@H]12 [T97] | 0.597 µM
110 nM | 16 nM | C[C@H]1C(=O)C(C#N)=C[C@@]2(C)c3c(c(Nc4ccccc4)nn3-c3ccc(-c4ccccc4)cc3)CC[C@H]12 [T100] | 0.319 µM
54 nM | 51 nM | C[C@H]1C(=O)C(C#N)=C[C@@]2(C)c3c(c(-c4ccncc4)nn3-c3ccc(-c4cncc(F)c4)cc3)CC[C@H]12 [T101] | 0.353 µM
47 nM | 31 nM | C[C@H]1C(=O)C(C#N)=C[C@@]2(C)c3c(c(-c4cccnc4)nn3-c3ccc(-c4cncc(F)c4)cc3)CC[C@H]12 [T103] | 0.365 µM
67 nM | 21 nM | C[C@H]1C(=O)C(C#N)=C[C@@]2(C)c3c(c(-c4ccc(F)cc4)nn3-c3ccc(-c4cncc(F)c4)cc3)CC[C@H]12 [T105] | 0.361 µM
